Reference: patent publication US20240115875A1, “Systems, Methods, and Substances for Controlled Endoluminal Energy Application” (Dream Big Biotechnologies B.V., priority 2021, published 2024)

Columns and labels:
tumor tissue [1] = experiment: Estimated PDT threshold doses for several photosensitizers (photodynamic threshold model); conditions: in tumor, from uptake and molar weight
Experimental: In these simulations, we assumed intravenous administration of a light-absorbing drug and the placement of a light emitter in the endovascular system at the site of tumor encroachment around it. Light absorbed by the photosensitizer was assumed to result in the local creation of short-lived cytotoxic radicals, causing cell death e.g. hemorrhagic tissue necrosis and apoptosis. To quantify the attainable effects, light-dose escalation studies were performed using Monte Carlo light propagation simulations (FullMonteCUDA) (“High-performance, robustly verified Monte Carlo simulation with FullMonte,” J. Biomed. Opt. 23(8), 085001 (2018)). The use of the photosensitizer BPD-MA mediated PDT was initially investigated in a simple “cube and tube” geometry representing the pancreas and a vessel traversing its center. The multilayered tube represented the vascular wall layers, intima, media and adventitia having an air-filled balloon with a linear line source in the center. […] Simulation properties were assigned as described above and PDT activation energies were escalated over the range of 10-100 J cm^−1 diffuser length, and the anticipated threshold dose in mJ·cm^−3 and radii of necrosis were estimated based on the photodynamic threshold model introduced by Patterson M, Wilson B C, Graff R: In vivo test of the concept of photodynamic threshold dose in normal rat liver photosensitized by aluminum chlorosulfunated phthalocyanine. Photochem Photobiol, 51(3): 343-349, 1990.
The pancreatic model is shown in FIG. 7A comprising a 4×4×5 cm cube, one half is assigned with optical properties of normal pancreatic tissue and the other half with those of cancerous pancreatic tissues. Running through the cube's center is a blood vessel made up of three layers, intima, media, adventitia, with assigned properties from the literature for aortic tissues. An initial dose-escalation simulation investigated if an adequate fluence [J·cm^−2] can be delivered through the vessel wall to create a surgically sufficiently large circumferential necrotic margin (mm) surrounding the vessel, based on the photosensitizer accumulation and the sensitizer's molar extinction coefficient. The vessel's inner diameter and wall thickness were set to 7.0 mm and 1.30 mm, respectively. The energy emitting source was cylindrical in shape with a length of 20 mm and the irradiance at the intima surface was fixed at 200 mW·cm^−2. The exposure times escalated to deliver 10 to 100 J total energy. An example of the absorbed energy density as a function of radius from the vessel center is shown in FIG. 7B, with an estimated necrotic margin ranging from […]. The subsequent necrotic clearing of viable tumor tissue from the adventitia is predicted based on the threshold model for common photosensitizers, see Tables 1 and 2.

tumor tissue [2] = conditions: input of the simulation, cited from earlier work; for Tumor uptake: assumed tissue uptake; for Molar extinction coefficient ϵ: at the wavelength given with each photosensitizer (630-690 nm)
[3] = In-vivo porcine model, heart rate and blood pressure during photosensitizer infusion; set-up: species or system Sus scrofa domesticus; conditions: for changes in blood pressure or heart rate during the injection: 5% i.v. dextrose drip
Experimental: The preclinical experiments in pigs required some precautions.
[…] […] The animal gradually recovered after 10 to 20 min and stabilized to normal heart rates.

[4] = tested on: porcine pancreas, splenic vein and artery; experiment: In-vivo dose escalation in healthy porcine, endovascular balloon-catheter PDT, 48h CT and histopathology
Experimental: The performance of Monte Carlo simulations determined that the photosensitizer verteporfin appears to be a suitable photosensitizer and that perivascular necrosis can occur when irradiating at relevant light dose ranges in a clinically acceptable time range of several minutes. In-vivo experiments were carried out in healthy porcine (n=7) delivering light irradiation from an endovascular balloon-catheter laser probe.
The irradiating balloon catheter was placed in the splenic vein (crosshair) and an increasingly large hypodense margin, interpreted as PDT induced necrosis, can be observed for increasing doses.
In FIG. 12A, the pancreas can be observed with the splenic vein, artery, and the approximate location of the irradiating balloon catheter. Radially extending into the pancreas is a circumferential margin of necrosis (dotted line and arrows, circa 10 mm).

[5] = tested on: porcine pancreas and target vessels (splenic, hepatic, superior mesenteric artery)
Experimental: Five large white porcine (Sus scrofa domesticus), weighing between 25-43 kg, were used as animal model, because the anatomy of the porcine pancreas and its vasculature closely resembles that of the human. Animals were handled according to the European Directive 2010/63 and French laws concerning animal protection in laboratories.
Following the intravascular procedure, porcine recovered from anesthesia and were housed for a survival period of 24 hours up to one week. After the survival period the sedation protocol above was repeated and general anesthesia was induced using intravenous (18 G Intravenous catheter in-ear vein) propofol 3 mg/kg, followed by orotracheal intubation and maintained with rocuronium 0.8 mg/kg along with inhaled isoflurane 2%. At the end of the experiment, animals were euthanized with an intravenous injection of pentobarbital 40 mg/kg IV (Exagon ND, Axience).
To counteract possible effects of BPD-MA on the porcine blood pressure, the antihistamine dexchlorpheniramine was given the days before and immediately prior to the start of photosensitizer infusion. Polaramine® was administered at 2 mg p.o. BID to TID the day before and Polaramine® 5 mg IV (slow bolus) 30 to 60 minutes before photosensitizer injection. Methylprednisolone SoluMedrol®120 (3 mg kg-1) was administered also IV (slow bolus) 30 to 60 minutes before photosensitizer injection. […]
To visualize the pancreas and its target vessels for treatment planning, non-enhanced and contrast-enhanced CT scans were carried out shortly before treatment, in the early arterial and early portal venous phase. […] A 3D vascular roadmap was obtained via software manipulation (syngo.via, Siemens Healthineers AG, Germany) and the position, morphology and dimensions of the target vessels were assessed and used for later co-localization during the angiography-guided procedure and placement of a suitably sized PDT light source, being a prototype irradiating balloon catheter. […]

Compound | Photosensitizer concentration (tumor tissue [1]) | Tumor uptake (tumor tissue [2]) | Molar extinction coefficient ϵ (tumor tissue [2]) | changes in heart rate during injection ([3]; first porcine, i.v. saline drip, without pre-medications, injection stopped at 0.2 mg kg^−1) | changes in blood pressure or heart rate during the injection ([3]; porcine 2-3, pre-medicated excluding heparin, 0.4 mg·kg^−1) | changes in blood pressure or heart rate during the injection ([3]; porcine 4-5, pre-medicated including heparin, 1.6 mg·kg^−1) | radius of apparent perivascular circumferential tissue necrosis ([4]; 0.4-3.2 mg/kg, light irradiation 8-25 minutes, 48h contrast-enhanced CT and histopathology, n=7) | artery and vein wall histopathology ([4]; L-size dose 1.6 mg/kg, 48h post PDT) | circumferential margin of necrosis extending into the pancreas, histopathology ([4]; L-size dose 1.6 mg/kg, 48h post PDT, H&E and EVG) | hypodense area around the target vessel on contrast-enhanced CT, extending outwards from the outer wall of the vessel (possible PDT-induced necrosis) ([5]; 0.4-1.6 mg·kg^−1 i.v., 690 nm, 150 mW·cm^−2, 75-225 J·cm^−2, CT 24 h to one week) | splenic arterial wall histopathology ([5]; in vivo) | vessel structural integrity on contrast-enhanced CT ([5]; in vivo)
c1ccc2c(c1)-c1nc-2nc2[nH]c(nc3nc(nc4[nH]c(n1)c1ccccc41)-c1ccccc1-3)c1ccccc21 [Phthalocyanine] | 2.3 · 10^−5 M | 12.3 mg/g |  |  |  |  |  |  |  |  |  | 
C=Cc1c(C)c2cc3nc(c(CC(=O)N[C@@H](CC(=O)O)C(=O)O)c4[nH]c(cc5nc(cc1[nH]2)C(C)=C5CC)c(C)c4C(=O)O)[C@@H](CCC(=O)O)[C@@H]3C [Talaporfin] | 2.2 · 10^−6 M | 1.62 mg/g | 40,000 M^−1 cm^−1 |  |  |  |  |  |  |  |  | 
Oc1cccc(-c2c3nc(c(-c4cccc(O)c4)c4ccc([nH]4)c(-c4cccc(O)c4)c4nc(c(-c5cccc(O)c5)c5ccc2[nH]5)CC4)C=C3)c1 [Temoporfin, 5,10,15,20-Tetra(m-hydroxyphenyl)chlorin] |  | 0.5 mg/g |  |  |  |  |  |  |  |  |  | 
Photofrin | 6.8 · 10^−6 M | 8.1 mg/g | 1,170 M^−1 cm^−1 |  |  |  |  |  |  |  |  | 
benzoporphyrin derivative monoacid ring A [Verteporfin] | 3.3 · 10^−5 M | 23.9 mg/g | 33,000 M^−1 cm^−1 | Immediate changes occurred in the heart rate, decreasing to a degree that adrenaline was administered to stabilize the animal | No changes occurred in blood pressure or heart rate during the injection | No changes occurred in blood pressure or heart rate during the injection | 2-15 mm | intact vessel unruptured walls albeit with atrophic muscular cells and ulcerated endothelial cells | circa 10 mm | 2-6 mm | endothelial loss and necrotic cellular tissues were observed, but the extracellular matrix containing collagen and elastin was preserved in some cases | no perforations, ruptures, and bleedings were observed
